Results from ChEMBL document CHEMBL1151073, “Substituted 1,3,5-triazines as cholesteryl ester transfer protein inhibitors” (Bioorg Med Chem Lett, 1996).

What was measured:
[1] = target: T1, Cholesteryl ester transfer protein (Homo sapiens) (UniProt P11597); assay: Compound was tested for inhibitory activity against Cholesteryl ester transfer protein at 50 uM
T1 sequence (whole entry): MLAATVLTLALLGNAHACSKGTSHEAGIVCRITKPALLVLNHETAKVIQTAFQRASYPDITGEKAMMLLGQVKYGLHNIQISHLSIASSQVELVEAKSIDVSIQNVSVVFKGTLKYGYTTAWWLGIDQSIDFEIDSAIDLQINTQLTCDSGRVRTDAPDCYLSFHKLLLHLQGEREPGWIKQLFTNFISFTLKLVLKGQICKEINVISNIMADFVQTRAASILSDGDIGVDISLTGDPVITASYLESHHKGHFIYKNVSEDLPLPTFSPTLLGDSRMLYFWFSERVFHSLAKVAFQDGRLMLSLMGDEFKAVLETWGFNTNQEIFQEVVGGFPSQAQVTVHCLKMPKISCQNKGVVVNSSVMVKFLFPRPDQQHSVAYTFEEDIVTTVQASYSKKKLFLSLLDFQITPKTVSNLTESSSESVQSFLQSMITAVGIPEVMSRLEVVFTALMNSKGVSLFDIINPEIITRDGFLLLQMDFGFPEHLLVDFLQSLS

[2] = target: T2, Cholesteryl ester transfer protein (Homo sapiens, UniProt P11597); assay: Inhibition of Cholesteryl ester transfer protein
T2 sequence (P11597 whole entry): T1 sequence (whole entry)

| Compound | inhibition [1] [%] | IC50 [2] [µM] |
| --- | --- | --- |
| Clc1ccc(N2CCN(c3nc(N/N=C/c4ccccc4)nc(N4CCNCC4)n3)CC2)cc1 |  | 10 |
| CN(CCc1ccccc1)c1nc(N2CCNCC2)nc(N2CCN(c3ccc(Cl)cc3)CC2)n1 |  | 6 |
| Clc1ccc(N2CCN(c3nc(NCc4ccccc4)nc(N4CCNCC4)n3)CC2)cc1 | 52 |  |
| COc1ccc(CCNc2nc(N3CCNCC3)nc(N3CCN(c4ccc(Cl)cc4)CC3)n2)cc1O |  | 16 |
| Clc1ccc(N2CCN(c3nc(OCCc4ccccc4)nc(N4CCNCC4)n3)CC2)cc1 | 66 |  |
| Clc1ccc(N2CCN(c3nc(N4CCNCC4)nc(N4CCc5ccccc5C4)n3)CC2)cc1 |  | 5 |
| Clc1ccc(N2CCN(c3nc(Cc4ccc5ccccc5c4)nc(N4CCNCC4)n3)CC2)cc1 |  | 5 |
| Oc1ccc(CCNc2nc(N3CCNCC3)nc(N3CCN(c4ccc(Cl)cc4)CC3)n2)cc1O |  | 21 |
| Clc1ccc(N2CCN(c3nc(NCCc4ccccc4)nc(N4CCNCC4)n3)CC2)cc1 |  | 45 |

Other lines, results leading:

| inhibition [1] [%] | IC50 [2] [µM] | Compound |
| --- | --- | --- |
| 57 |  | CCCCOc1nc(N2CCNCC2)nc(N2CCN(c3ccc(Cl)cc3)CC2)n1 |
| 11 |  | Oc1nc(N2CCNCC2)nc(N2CCN(c3ccc(Cl)cc3)CC2)n1 |
|  | 11 | Clc1ccc(N2CCN(c3nc(-c4ccccc4)nc(N4CCNCC4)n3)CC2)cc1 |
|  | 11 | CCCCc1nc(N2CCNCC2)nc(N2CCN(c3ccc(Cl)cc3)CC2)n1 |
| 37 |  | Clc1ccc(N2CCN(c3nc(Cl)nc(N4CCNCC4)n3)CC2)cc1 |
|  | 9 | Clc1ccc(Cc2nc(N3CCNCC3)nc(N3CCN(c4ccc(Cl)cc4)CC3)n2)cc1 |
|  | 12 | Clc1ccc(N2CCN(c3nc(C#Cc4ccccc4)nc(N4CCNCC4)n3)CC2)cc1 |
| 48 |  | C=Cc1nc(N2CCNCC2)nc(N2CCN(c3ccc(Cl)cc3)CC2)n1 |
| 14 |  | Clc1ccc(N2CCN(c3ncnc(N4CCNCC4)n3)CC2)cc1 |
|  | 9 | Clc1ccc(N2CCN(c3nc(Cc4ccccc4)nc(N4CCNCC4)n3)CC2)cc1 |
